In patent US6825230B2, “Spiro and dispiro 1,2,4-trixolane antimalarials” (Medicines for Malaria Venture MMV, priority 2002, dated 2004):

Key:
[1] = tested on: Schistosoma mansoni 21-day-old schistosomules; assay: Effect on 21-day-old schistosomules in infected mice; type: in vivo; conditions: single 200 mg/kg per os, 21-day-old schistosomules; for % reduction of schistosomule growth at day 21 after per os application of 200 mg/kg, FWR (%): female worm reduction rate; for % reduction of schistosomule growth at day 21 after per os application of 200 mg/kg, TWR (%): total worm reduction rate
Experimental: Mice were infected with 100 Schistosoma mansoni cercariae on day 21 post-treatment. Each group was treated per os with trioxolanes at a single dose of 200 mg/kg. […] All groups were killed 4 weeks after treatment and the liver and intestine were removed and separated. The liver and intestine were compressed and alive male and female worms could be seen and counted. The effect of the compounds was evaluated by mean total and female worm burden.

[2] = tested on: P. berghei ANKA strain; assay: Divided 3x3 mg/kg and 3x1 mg/kg po doses in infected mice; type: in vivo, Plasmodium berghei; conditions: for Activity (%): percent reduction of parasitemia vs control on day 4
Experimental: Moro NMRI male mice (Fu Albino specific pathogen free) weighing 18±2 g were infected intravenously (i.v.) with 2×10^7 P. berghei ANKA strain-infected erythrocytes from donor mice on day 0 of the experiment. From donor mice with circa 30% parasitemia, heparinized blood was taken and diluted in physiological saline to 10^8 parasitized erythrocytes per ml. An aliquot (0.2 ml) of this suspension was injected i.v. into experimental and control groups of mice. […] Throughout the experiments, mice were kept in groups of three or five animals in Makrolon type II cages in an air-conditioned animal room at 22 to 23° C.
They were administered per os (p.o.) in a total volume of 0.01 ml per gram of mouse. The activity of the compound was determined by a variety of methods outlined in subsequent sections. Survival time was also recorded, and survival to day 30 post-infection was considered to be a cure.
The second experiment consists of administration of divided 3×3 mg/kg and 3×1 mg/kg po doses administered on days 1, 2, and 3 post-infection. On day 4 post-infection, blood smears of all animals were prepared and stained with Giemsa. […] Compounds were administered orally in the SSV vehicle.

[3] = tested on: ANKA strain of P. berghei; assay: Single dose STI in vivo screen in infected mice; design: species or system Plasmodium berghei
[4] = 3 × 1 mg/kg p.o. SSV on days 1, 2, 3 post-infection
[5] = 3 × 3 mg/kg p.o. SSV on days 1, 2, 3 post-infection

SMILES | % reduction of schistosomule growth at day 21 after per os application of 200 mg/kg, FWR (%) [1] [%] | % reduction of schistosomule growth at day 21 after per os application of 200 mg/kg, TWR (%) [1] [%] | Survival [2, 4] [days] | Activity (%) [2, 4] [%] | Survival [2, 5] [days] | Activity (%) [2, 5] [%] | also measured
ON=C1CCC2(CC1)OOC1(O2)C2CC3CC(C2)CC1C3 (centres unmarked) [OZ16] | 77 | 78 | – | – | – | – | –
CCOC(=O)CNCC1CCC2(CC1)OOC1(O2)C2CC3CC(C2)CC1C3.CS(=O)(=O)O (centres unmarked) [compound 290] | – | – | 6.8 | 14 | 10.6 | 93 | –
NC1CCN(C(=O)C[C@H]2CC[C@]3(CC2)OO[C@]2(O3)C3CC4CC(C3)CC2C4)CC1 [OZ339] | – | – | – | – | – | – | Cured infected mice at the 3×3 mg/kg dose ([2]; 3 mg/kg po (SSV) on days 1, 2, 3 post-infection): 3/5; Survival (days) 3 mg/kg SSV po ([3]; single 3 mg/kg po in SSV): 9.2 days; Survival (days) 10 mg/kg SSV po ([3]; single 10 mg/kg po in SSV, untreated 6-7 days): 10.2 days
CC1(O)CCC2(CC1)OOC1(O2)C2CC3CC(C2)CC1C3 (centres unmarked) [OZ90] | 79 | 81 | – | – | – | – | –
CON=C1CC2CC3(CC2C1)OOC1(O3)C2CC3CC(C2)CC1C3 (centres unmarked) [OZ37] | 53 | 63 | – | – | – | – | –
O=C1CN(C(=O)CC2CCC3(CC2)OOC2(O3)C3CC4CC(C3)CC2C4)CCN1 (centres unmarked) [compound 296] | – | – | 7.8 | 49 | 9.4 | 94 | –
CC1(C)CC(C)(C)CC2(C1)OOC1(O2)C2CC3CC(C2)CC1C3 (centres unmarked) [OZ26] | 40 | 37 | – | – | – | – | –
O=C(NN=C1CCC2(CC1)OOC1(O2)C2CC3CC(C2)CC1C3)Nc1ccccc1 (centres unmarked) [OZ30] | 12 | 16 | – | – | – | – | –
NC1(C(=O)NCC2CCC3(CC2)OOC2(O3)C3CC4CC(C3)CC2C4)CCCC1 (centres unmarked) [compound 317] | – | – | 11.4 | 73 | 16.8 | 100 | –
O=c1ccn(CC2CCC3(CC2)OOC2(O3)C3CC4CC(C3)CC2C4)cc1 (centres unmarked) [compound 302] | – | – | 13.4 | 87 | 13.4 | 99.51 | –
CS(=O)(=O)N1CCC2(CC1)OOC1(O2)C2CC3CC(C2)CC1C3 (centres unmarked) [OZ56] | 66 | 69 | – | – | – | – | –
C1CC2(CCO1)OOC1(O2)C2CC3CC(C2)CC1C3 (centres unmarked) [OZ22] | 76 | 75 | – | – | – | – | –
CS(=O)(=O)O.NC(=O)CCNCC1CCC2(CC1)OOC1(O2)C2CC3CC(C2)CC1C3 (centres unmarked) [compound 319] | – | – | 13 | 92 | 11.2 | 99.97 | –
NC(=O)c1cn(CC2CCC3(CC2)OOC2(O3)C3CC4CC(C3)CC2C4)cn1 (centres unmarked) [compound 320] | – | – | 8.6 | 50 | 9.6 | 96 | –
